# Assay results as given in US8044044B2, “4-(1-amino-ethyl)-cyclohexylamine derivatives” (Actelion Pharmaceutical Ltd., priority 2006, dated 2011).
# Tests used:
# S. aureus A798 = experiment: MIC by broth microdilution (NCCLS), S. aureus A798; assay type: cell-based, Staphylococcus aureus; details: strain A798, cation-adjusted Mueller-Hinton Broth, pH 7.2-7.3; for MIC: Staphylococcus aureus
# Procedure: (§1) These assays have been performed following the description given in “Methods for dilution Antimicrobial Susceptibility Tests for Bacteria that Grow Aerobically, 4th ed.; Approved standard: NCCLS Document M7-A4; National Committee for Clinical Laboratory Standards: Villanova, Pa., USA, 1997”. Minimal inhibitory concentrations (MICs; mg/l) were determined in cation-adjusted Mueller-Hinton Broth (BBL) by a microdilution method following NCCLS guidelines (National Committee for Clinical Laboratory Standards. Methods for Dilution Antimicrobial Susceptibility). The pH of the test medium was 7.2-7.3.
# A. baumanii T6474 = experiment: MIC by broth microdilution (NCCLS), A. baumanii T6474; assay type: cell-based, Acetinobacter baumannii; details: strain T6474, cation-adjusted Mueller-Hinton Broth, pH 7.2-7.3; for MIC: Acinetobacter baumannii
# Procedure: as §1
# P. aeruginosa A1124 = experiment: MIC by broth microdilution (NCCLS), P. aeruginosa A1124; assay type: cell-based, Pseudomonas aeruginosa; details: strain A1124, cation-adjusted Mueller-Hinton Broth, pH 7.2-7.3; for MIC: Pseudomonas aeruginosa
# Procedure: as §1
"MIC (S. aureus A798; second table, all Examples) [µg/mL]","MIC S. aureus A798 (S. aureus A798; second table, all Examples) [µg/mL]",SMILES,further results
0.063,–,"COc1ccc2nccc(CC(N)[C@H]3CC[C@H](NCC=Cc4cc(F)ccc4F)CC3)c2n1 (mixture of isomers) [Example 4, trans-{4-[(1RS)-1-amino-2-(6-methoxy-[1,5]naphthyridin-4-yl)-ethyl]-cyclohexyl}-[3-(2,5-difluoro-phenyl)-allyl]-amine]",–
–,0.125,"COC(=O)c1ccc(CC(N)[C@H]2CC[C@H](NC/C=C/c3cc(F)ccc3F)CC2)c2nc(OC)ccc12 (mixture of isomers) [Example 5, 8-[(2RS)-2-amino-2-trans-{4-[(E)-3-(2,5-difluoro-phenyl)-allylamino]-cyclohexyl}-ethyl]-2-methoxy-quinoline-5-carboxylic acid methyl ester]",–
0.063,–,"COc1cnc2cccc(CC(N)[C@H]3CC[C@H](NCc4ccc5c(n4)NC(=O)CS5)CC3)c2n1 (mixture of isomers) [Example 7, 6-(trans-{4-[(1RS)-1-amino-2-(3-methoxy-quinoxalin-5-yl)-ethyl]-cyclohexylamino}-methyl)-4H-pyrido[3,2-b][1,4]thiazin-3-one]",–
1,–,"COc1cnc2cccc(CC(N)[C@H]3CC[C@@H](NCc4ccc5c(n4)NC(=O)CS5)CC3)c2n1 (mixture of isomers) [Example 8, 6-(cis-{4-[(1RS)-1-amino-2-(3-methoxy-quinoxalin-5-yl)-ethyl]-cyclohexylamino}-methyl)-4H-pyrido[3,2-b][1,4]thiazin-3-one]",–
0.5,–,"COc1ccc2nccc(CC(N)[C@H]3CC[C@H](NCc4ccc5c(n4)NC(=O)CO5)CC3)c2n1 (mixture of isomers) [Example 9, 6-(trans-{4-[(1RS)-1-amino-2-(6-methoxy-[1,5]naphthyridin-4-yl)-ethyl]-cyclohexylamino}-methyl)-4H-pyrido[3,2-b][1,4]oxazin-3-one]",–
0.031,–,"COc1ccc2ncc(F)c(CC(N)[C@H]3CC[C@H](NCc4ccc5c(n4)NC(=O)CS5)CC3)c2c1 (mixture of isomers) [Example 10, trans-6-({4-[(1RS)-1-amino-2-(3-fluoro-6-methoxy-quinolin-4-yl)-ethyl]-cyclohexylamino}-methyl)-4H-pyrido[3,2-b][1,4]thiazin-3-one]",–
–,0.5,"COc1ccc2ncc(F)c(CC(N)[C@H]3CC[C@@H](NCc4ccc5c(n4)NC(=O)CS5)CC3)c2c1 (mixture of isomers) [Example 11, cis-6-({4-[(1RS)-1-amino-2-(3-fluoro-6-methoxy-quinolin-4-yl)-ethyl]-cyclohexylamino}-methyl)-4H-pyrido[3,2-b][1,4]thiazin-3-one]",MIC (S. aureus A798; table of typical results): 0.5 µg/mL; MIC (A. baumanii T6474): 4 µg/mL; MIC (P. aeruginosa A1124): 0.125 µg/mL
≤ 0.031,–,"COc1ccc2ncc(F)c(CC(N)[C@H]3CC[C@H](NC/C=C/c4cc(F)ccc4F)CC3)c2c1 (mixture of isomers) [Example 12, trans-{4-[(1RS)-1-amino-2-(3-fluoro-6-methoxy-quinolin-4-yl)-ethyl]-cyclohexyl}-[3-(E)-(2,5-difluoro-phenyl)-allyl]-amine]",–
0.063,–,"COc1ccc2ncc(F)c(CC(N)[C@H]3CC[C@@H](NC/C=C/c4cc(F)ccc4F)CC3)c2c1 (mixture of isomers) [Example 13, cis-{4-[(1RS)-1-amino-2-(3-fluoro-6-methoxy-quinolin-4-yl)-ethyl]-cyclohexyl}-[3-(E)-(2,5-difluoro-phenyl)-allyl]-amine]",–
≤ 0.031,–,"COc1ccc2ncc(F)c(CC(N)[C@H]3CC[C@H](NCc4ccc5c(n4)NC(=O)CS5)CC3)c2n1 (mixture of isomers) [Example 14, trans-6-({4-[(1RS)-1-amino-2-(3-fluoro-6-methoxy-[1,5]naphthyridin-4-yl)-ethyl]-cyclohexylamino}-methyl)-4H-pyrido[3,2-b][1,4]thiazin-3-one]",–
0.25,–,"COc1ccc2ncc(F)c(CC(N)[C@H]3CC[C@@H](NCc4ccc5c(n4)NC(=O)CS5)CC3)c2n1 (mixture of isomers) [Example 15, cis-6-({4-[(1RS)-1-amino-2-(3-fluoro-6-methoxy-[1,5]naphthyridin-4-yl)-ethyl]-cyclohexylamino}-methyl)-4H-pyrido[3,2-b][1,4]thiazin-3-one]",–
0.063,–,"COc1ccc2ncc(F)c(CC(N)[C@H]3CC[C@H](NCc4ccc5c(c4)NC(=O)CO5)CC3)c2c1 (mixture of isomers) [Example 16, trans-6-({4-[(1RS)-1-amino-2-(3-fluoro-6-methoxy-quinolin-4-yl)-ethyl]-cyclohexylamino}-methyl)-4H-benzo[1,4]oxazin-3-one]",–
1,–,"COc1ccc2nccc(CC(N)[C@H]3CC[C@H](NCc4ccc5c(c4)NC(=O)CO5)CC3)c2c1 (mixture of isomers) [Example 19, trans-6-({4-[(1RS)-1-amino-2-(6-methoxy-quinolin-4-yl)-ethyl]-cyclohexylamino}-methyl)-4H-benzo[1,4]oxazin-3-one]",–
–,0.125,"COc1ccc2nccc(CC(N)[C@H]3CC[C@H](NCc4ccc5c(n4)NC(=O)CS5)CC3)c2c1 (mixture of isomers) [Example 20, trans-6-({4-[(1RS)-amino-2-(6-methoxy-quinolin-4-yl)-ethyl]-cyclohexylamino}-methyl)-4H-pyrido[3,2-b][1,4]thiazin-3-one]",–
–,0.5,"COc1ccc2nccc(CC(N)[C@H]3CC[C@H](NCc4ccc5c(n4)NC(=O)CO5)CC3)c2c1 (mixture of isomers) [Example 21, trans-6-({4-[(1RS)-amino-2-(6-methoxy-quinolin-4-yl)-ethyl]-cyclohexylamino}-methyl)-4H-pyrido[3,2-b][1,4]oxazin-3-one]",–
0.125,–,"COc1ccc2nccc([C@@H](O)[C@H](N)[C@H]3CC[C@H](NCc4ccc5c(n4)NC(=O)CS5)CC3)c2n1 (relative stereo) [Example 3, 6-(trans-{4-[(1R*,2R*)-1-amino-2-hydroxy-2-(6-methoxy-[1,5]naphthyridin-4-yl)-ethyl]-cyclohexylamino}-methyl)-4H-pyrido[3,2-b][1,4]thiazin-3-one]",–
–,0.063,"COc1ccc2nccc([C@@H](O)[C@H](N)[C@H]3CC[C@H](NCc4ccc5c(c4)OCCO5)CC3)c2n1 (relative stereo) [Example 17, trans-(1R*,2R*)-2-amino-2-{4-[(2,3-dihydro-benzo[1,4]dioxin-6-ylmethyl)-amino]-cyclohexyl}-1-(6-methoxy-[1,5]naphthyridin-4-yl)-ethanol]",MIC (S. aureus A798; table of typical results): 0.063 µg/mL; MIC (A. baumanii T6474): 16 µg/mL; MIC (P. aeruginosa A1124): 2 µg/mL
≤ 0.031,–,"COc1ccc2nccc([C@@H](O)[C@H](N)[C@H]3CC[C@H](NC/C=C/c4cc(F)ccc4F)CC3)c2n1 (relative stereo) [Example 18, trans-(1R*,2R*)-2-amino-2-{4-[(E)-3-(2,5-difluoro-phenyl)-allylamino]-cyclohexyl}-1-(6-methoxy-[1,5]naphthyridin-4-yl)-ethanol]",–
–,4,"COc1ccc2nccc(C[C@@H](N)[C@H]3CC[C@H](NCc4ccc5c(n4)NC(=O)CS5)CC3)c2n1 [Example 1, 6-(trans-{4-[(1R)-1-amino-2-(6-methoxy-[1,5]naphthyridin-4-yl)-ethyl]-cyclohexylamino}-methyl)-4H-pyrido[3,2-b][1,4]thiazin-3-one]",MIC (S. aureus A798; table of typical results): 4 µg/mL; MIC (A. baumanii T6474): 32 µg/mL; MIC (P. aeruginosa A1124): 0.063 µg/mL
0.125,–,"COc1ccc2nccc(C[C@H](N)[C@H]3CC[C@H](NCc4ccc5c(n4)NC(=O)CS5)CC3)c2n1 [Example 2, 6-(trans-{4-[(1S)-1-amino-2-(6-methoxy-[1,5]naphthyridin-4-yl)-ethyl]-cyclohexylamino}-methyl)-4H-pyrido[3,2-b][1,4]thiazin-3-one]",–

SMILES,"MIC (S. aureus A798; second table, all Examples) [µg/mL]","MIC S. aureus A798 (S. aureus A798; second table, all Examples) [µg/mL]",further results
"COc1ccc2c(CO)ccc(CC(N)[C@H]3CC[C@H](NC/C=C/c4cc(F)ccc4F)CC3)c2n1 (mixture of isomers) [Example 6, [8-((2RS)-2-amino-2-trans-{4-[3-(E)-(2,5-difluoro-phenyl)-allylamino]-cyclohexyl}-ethyl)-2-methoxy-quinolin-5-yl]-methanol]",–,0.125,MIC S. aureus A798 (S. aureus A798; table of typical results): 0.125 µg/mL; MIC A. baumanii T6474 (A. baumanii T6474): 16 µg/mL; MIC P. aeruginosa A1124 (P. aeruginosa A1124): 0.5 µg/mL
